In ChEMBL document CHEMBL1138227, “N1-substituted thymine derivatives as mitochondrial thymidine kinase (TK-2) inhibitors” (J Med Chem, 2006) one finds IC50 and Ki data, which are given here for 19 compounds.

Test [1] has as its target T1, Thymidine kinase 2, mitochondrial (Homo sapiens, UniProt O00142).
T1 sequence (O00142 whole entry): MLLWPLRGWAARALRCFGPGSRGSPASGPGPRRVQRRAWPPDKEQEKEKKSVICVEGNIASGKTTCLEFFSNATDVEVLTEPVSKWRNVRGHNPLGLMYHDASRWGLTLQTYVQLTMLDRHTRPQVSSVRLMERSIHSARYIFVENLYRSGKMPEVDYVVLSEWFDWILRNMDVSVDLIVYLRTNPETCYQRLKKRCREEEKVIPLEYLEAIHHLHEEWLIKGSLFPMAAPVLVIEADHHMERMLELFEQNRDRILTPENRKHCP
Nature of the test: Inhibition of [3H]methyl dThd phosphorylation by TK2.

A further test concerns the target T2, Thymidine kinase (Human alphaherpesvirus 1, UniProt Q9QNF7).
T2 sequence (Q9QNF7 whole entry): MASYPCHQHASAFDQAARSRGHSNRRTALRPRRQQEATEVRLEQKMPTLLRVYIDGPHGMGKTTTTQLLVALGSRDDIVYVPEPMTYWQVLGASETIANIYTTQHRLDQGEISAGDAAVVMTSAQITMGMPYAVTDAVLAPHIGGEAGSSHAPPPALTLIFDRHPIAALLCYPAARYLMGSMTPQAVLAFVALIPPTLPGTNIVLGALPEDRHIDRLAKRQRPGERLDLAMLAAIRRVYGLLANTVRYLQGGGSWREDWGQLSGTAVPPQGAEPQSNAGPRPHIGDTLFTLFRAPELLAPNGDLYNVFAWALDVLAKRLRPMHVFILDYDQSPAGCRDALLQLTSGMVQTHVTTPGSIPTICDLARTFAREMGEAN
In words: Inhibition of [3H]methyl dThd phosphorylation by HSV1 TK.

In the next test the target is T3, Deoxynucleoside kinase (Drosophila melanogaster, UniProt Q9XZT6).
T3 sequence (Q9XZT6 whole entry): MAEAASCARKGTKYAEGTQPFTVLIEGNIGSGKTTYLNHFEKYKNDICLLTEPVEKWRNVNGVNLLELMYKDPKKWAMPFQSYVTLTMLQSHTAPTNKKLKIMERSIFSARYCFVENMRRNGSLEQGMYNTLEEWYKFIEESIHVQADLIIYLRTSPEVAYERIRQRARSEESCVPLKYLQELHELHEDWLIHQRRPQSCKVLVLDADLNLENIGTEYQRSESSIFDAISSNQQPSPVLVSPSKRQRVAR
Nature of the test: Inhibition of [3H]methyl dThd phosphorylation by Drosophila melanogaster dNK.

Test [2] in a line: Cytotoxicity against human OST TK- cells expressing HSV1 TK in presence of 10 uM 1-[6-[1,1-(diphenyl)-1-(4-pyridyl)methoxy]hexyl]thymine. Format: cell-based.
The nature of test [3]: Cytotoxicity against human OST TK- cells expressing HSV1 TK in presence of 5 uM 1-[6-[1,1-(diphenyl)-1-(4-pyridyl)methoxy]hexyl]thymine. In kind it is cell-based.
Test [4] can be described thus: Cytotoxicity against human OST TK- cells expressing HSV1 TK in presence of 2.5 uM 1-[6-[1,1-(diphenyl)-1-(4-pyridyl)methoxy]hexyl]thymine. In kind it is cell-based.
A short description of test [5]: Cytotoxicity against human OST TK- cells expressing HSV1 TK in presence of 10 uM 1-[6-(triphenylmethoxy)hexyl]thymine. Format: cell-based.
Test [6] can be described thus: Cytotoxicity against human OST TK- cells expressing HSV1 TK in presence of 5 uM 1-[6-(triphenylmethoxy)hexyl]thymine. In kind it is cell-based.
Test [7] is described as follows: Cytotoxicity against human OST TK- cells expressing HSV1 TK in presence of 2.5 uM 1-[6-(triphenylmethoxy)hexyl]thymine. In kind it is cell-based.
Test [8] can be described thus: Cytotoxicity against human OST TK- cells expressing HSV1 TK. Format: cell-based.
Test [9] has as its target T1, Thymidine kinase 2, mitochondrial. Nature of the test: Inhibition of TK2.

SMILES strings stand for the structures.

Turning to `Cc1cn(CCCOC(c2ccccc2)(c2ccccc2)c2ccccc2)c(=O)[nH]c1=O`, the half-inhibitory concentration (IC50) came to 45000 nM in test [1], 46000 nM at Thymidine kinase and 21000 nM on Deoxynucleoside kinase.

Compound `Cc1cn(C/C=C\COC(c2ccccc2)(c2ccccc2)c2ccccc2)c(=O)[nH]c1=O` had an IC50 on Deoxynucleoside kinase of 3300 nM.

`Cc1cn(C/C=C\COC(c2ccccc2)(c2ccccc2)c2cc[n+](C)cc2)c(=O)[nH]c1=O`: the half-inhibitory concentration (IC50) is 114000 nM in test [1], over 500000 nM at Thymidine kinase and 144000 nM against Deoxynucleoside kinase.

In the case of `Cc1cn([C@@H]2O[C@H](CO)[C@@H](O)[C@@H]2O)c(=O)[nH]c1=O`, the IC50 turned out to be 370 nM in test [2]; 240 nM in [3]; 120 nM in [4]; 150 nM in [5]; 100 nM in test [6]; 55 nM in test [7]. Further, in test [8], the IC50 turned out to be 6.2 nM.

Take `Cc1cn(CCOCCOC(c2ccccc2)(c2ccccc2)c2ccccc2)c(=O)[nH]c1=O`: the IC50 was found to be 9700 nM in [1], 17000 nM at Thymidine kinase and 56000 nM against Deoxynucleoside kinase.

Consider `Cc1cn(CCOCCOC(c2ccccc2)(c2ccccc2)c2ccncc2)c(=O)[nH]c1=O`, for which the IC50 was determined as 23000 nM in test [1], 21000 nM on Thymidine kinase and 35000 nM against Deoxynucleoside kinase.

On to `Cc1cn(CCCCCCCCOC(c2ccccc2)(c2ccccc2)c2ccccc2)c(=O)[nH]c1=O`, for which the IC50 in [1] was 45000 nM; at Thymidine kinase, over 500000 nM; against Deoxynucleoside kinase, 30000 nM.

As to `Cc1cn(CCCCCCOC(c2ccccc2)(c2ccccc2)c2ccccc2)c(=O)[nH]c1=O`, the IC50 was 41 nM in test [2]; 33 nM in test [3]; 18 nM in [4]; 500 nM in [1]; 3700 nM against Thymidine kinase; 17000 nM on Deoxynucleoside kinase. Also, the IC50 in test [5] amounted to 150 nM; in [6], 100 nM; in [7] it was 55 nM.

As for `Cc1cn(C/C=C\COC(c2ccccc2)(c2ccccc2)c2ccncc2)c(=O)[nH]c1=O`, the IC50 in [1] was determined as 1800 nM; against Thymidine kinase, 25000 nM; against Deoxynucleoside kinase, 3400 nM.

On to `Cc1cn(CCCCCCOC(c2ccccc2)(c2ccccc2)c2ccncc2)c(=O)[nH]c1=O`, for which the IC50 in [2] was determined as 110 nM; in test [3] it was 81 nM; in test [4], 50 nM; in [1], 470 nM; against Thymidine kinase it was 2000 nM; at Deoxynucleoside kinase it was 2700 nM. Also, the IC50 in test [5] worked out at 370 nM; in test [6], 240 nM; in test [7] it was 120 nM. In test [9], this compound displayed a Ki of 290 nM.

Take `Cc1cn(CCCCCCCOC(c2ccccc2)(c2ccccc2)c2ccccc2)c(=O)[nH]c1=O`: the IC50 in [1] was 4700 nM; on Thymidine kinase, at least 50000 nM; against Deoxynucleoside kinase, 32000 nM.

Turning to `Cc1cn(CCCCCCOC(c2ccccc2)(c2ccccc2)c2cc[n+](C)cc2)c(=O)[nH]c1=O`, the IC50 turned out to be 23000 nM in test [1], 41000 nM at Thymidine kinase and 29000 nM at Deoxynucleoside kinase.

`CNC(=O)c1ccc(C(OCCCCCCn2cc(C)c(=O)[nH]c2=O)(c2ccccc2)c2ccccc2)cc1`: the half-maximal inhibitory concentration (IC50) came out at 390 nM in [1], 700 nM on Thymidine kinase and 3500 nM at Deoxynucleoside kinase.

As to `Cc1cn(CCCCCCOC(c2ccccc2)(c2ccccc2)c2ccc(Cl)cc2)c(=O)[nH]c1=O`, the figures for the IC50 (in test [1]; on Thymidine kinase; against Deoxynucleoside kinase) were 1900 nM, 1000 nM and 47000 nM, respectively.

For `Cc1cn(C/C=C\COC(c2ccccc2)(c2ccccc2)c2ccc(Cl)cc2)c(=O)[nH]c1=O`, the IC50 in [1] was found to be 2400 nM; on Thymidine kinase it was 18000 nM; against Deoxynucleoside kinase, 5700 nM.

With `Cc1cn(CCCCCOC(c2ccccc2)(c2ccccc2)c2ccccc2)c(=O)[nH]c1=O`, the IC50 in test [1] is 2500 nM; against Thymidine kinase it was 32000 nM; against Deoxynucleoside kinase, 15000 nM.

`CNC(=O)c1ccc(C(OC/C=C\Cn2cc(C)c(=O)[nH]c2=O)(c2ccccc2)c2ccccc2)cc1`: the IC50 amounted to 1900 nM in test [1], 42000 nM at Thymidine kinase and 1600 nM against Deoxynucleoside kinase.

Regarding `Nc1nc2c(ncn2COC(CO)CO)c(=O)[nH]1` [GANCICLOVIR], the IC50 in test [2] was 110 nM; in test [3] it was 81 nM; in test [4] it was 50 nM; in test [5], 41 nM; in test [6], 33 nM; in test [7], 18 nM. In addition, in test [8], the midpoint of inhibition, the IC50, lay at 1.9 nM.

Turning to `Cc1cn(CCOCCOC(c2ccccc2)(c2ccccc2)c2ccc(Cl)cc2)c(=O)[nH]c1=O`, the IC50 in [1] worked out at 5200 nM; against Thymidine kinase it was 2700 nM; on Deoxynucleoside kinase, 45000 nM.
